Data as given in ChEMBL document CHEMBL1141814, “Chiral dihydroxylation of acronycine: absolute configuration of natural cis-1,2-dihydroxy-1,2-dihydroacronycine and cytotoxicity of (1R,2R)- and (1S,2S)-1,2-diacetoxy-1,2-dihydroacronycine” (J Nat Prod, 1999).
pIC50: −log10 of the molar value.

Tested on: L1210
Experiment: Cytotoxicity against mouse L1210 cells after 48 hrs by […] assay
Type: functional, cell-based
Conditions: L1210, 48 h

SMILES | pIC50
COc1cc2c(c3c1c(=O)c1ccccc1n3C)[C@H](OC(C)=O)[C@H](OC(C)=O)C(C)(C)O2 | 5.43
COc1cc2c(c3c1c(=O)c1ccccc1n3C)[C@@H](OC(C)=O)[C@@H](OC(C)=O)C(C)(C)O2 | 5.51
COc1cc2c(c3c1c(=O)c1ccccc1n3C)C=CC(C)(C)O2 [ACRONINE] | 4.98
